Measured values published in patent US12590126B2, “Compounds for selective disruption of protein-protein interactions” (SyntheX, Inc., priority 2017, dated 2026).
Read-outs that look alike come from different tables or passages of the source. One block for each compound: values may come before it. Where a SMILES comes first, the peptide text is derived from it. [ ]: non-standard residue; d: D form. 2Nal = N[C@@H](Cc1ccc2ccccc2c1)C(=O)O; dNle = CCCC[C@@H](N)C(=O)O; βAla = NCCC(=O)O

Experiments:
[1] = Mouse pharmacokinetics, IV and IP dosing; format: in vivo, mice
Description: The pharmocokinetic parameters in mice by both intravenous (IV) and intraperitoneal (IP) dosing, as well as the serum and microsome stability for each of compound 22, 23, 24, and 25 was determined. Bioanalytical methods were developed for each compound using an LC-MS/MS method with LLOQ>100 ng/ml.
For in-vivo PK work, at least 3 mice were used per timepoint. For each compound, the animals were injected either IV or IP with the compound. IV injections used 1 mg/kg, and IP injections were at 15 mg/kg. Blood was collected at the indicated timepoints and analyzed according to the bioanalytical method developed.

fresh human RBCs = format: cell-based; settings: red cells of human, 1 h, 250
In short: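 Washed RBCs from O+ donors (K2EDTA), diluted to 2% in PBS, incubated with compounds at various concentrations for 1 hr at 37 C. Supernatant absorbance read at 450 or 405 nm after centrifugation; % hemolysis relative to 1% Triton X-100.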

A549 xenograft = A549 xenograft in athymic nude mice, compound 22; format: in vivo; settings: 15 mpk IP every other day
Description: The anti-cancer activity of compound 22 was assessed in an A549 xenograft model in a method similar to Example 4. Briefly, A549 cells were implanted into athymic nude female mice. Tumors were allowed to grow to 100 mm^3 before initiation of dosing. Mice were randomly distributed into dosing groups with at least 3 animals per group. Mice were dosed using 15 mpk TP injections every other day.
Tumor volumes and mouse weights were recorded at the indicated timepoints. Terminal tumors were excised and weighed (N=3 for each group).

in vitro [2] = settings: human, microsomes
Description: (§1) For HLM and MLM stability studies, each compound was incubated with the liver microsome mixture for up to an hour at 37 C in the presence of NADPH.
(§2) After the incubations, the reactions were stopped and the compounds were analyzed according to the method developed for each.

SSP-25 cells = experiment: xCELLigence cell death assay in SSP-25 cells (cellular assay for RAD51 inhibition); format: cell-based; settings: concentration gradient added at 20 hour mark, only values with R^>0.85 shown
in vitro [3] = settings: mouse, serum
Description: Serum stability data was obtained using the appropriate animal serum, each incubated with the compound for up to two hours at 37 C.

in vitro [4] = settings: mouse, microsomes
Description: as §1, §2

A549 cells [5] = experiment: A549 cell growth/death, xCELLigence and microscopy; format: cell-based; settings: xCELLigence, concentration gradient
Description: To assess the growth inhibitory properties of compounds disclosed herein, 10 μM of Compound 1 was tested against a PBS mock treatment for growth of A549 cells using microscopy at the indicated timepoints shown in the top right corner of each panel of FIG. 2. […] First, 5,000 A549 cells were plated, and adherence and growth was measured for 20 hours using live measurements of current impedance through the plate using the xCELLigence™ instrument. At the […] mark, a concentration gradient of Compound 1 or a PBS control was added to the A549 cells, which were cultured in 100 μL DMEM media with 10% FBS.

SSP25 cells = experiment: xCELLigence cell death assay with intracellular calcium chelators; format: cell-based; settings: relative to compound alone
Description: To investigate the hypothesis that peptide treatment of cells causes cell death via increases in intracellular free calcium levels, Compound 1 alone and in combination with two different intracellular calcium chelators (1,2-Bis(2-aminophenoxy)ethane-N,N,N′,N′-tetraacetic acid tetrakis(acetoxymethyl ester) aka “BAPTA-AM”, and ammoniated ruthenium oxychloride aka “ruthenium red”) was tested in an xCELLigence™ cell death assay as in Example 1. The intracellular calcium chelators alone were also evaluated on the cells.

A549 cells [6] = experiment: Intracellular calcium imaging with Fluo-2-AM; format: cell-based; settings: 30 μM compound, pre-incubation with 2.5 μM Fluo-2-AM
Text: Timestamps for the duration of the experiment are indicated in each panel.

primary fibroblasts = experiment: Selective killing, Cytation imaging of primary fibroblasts; format: cell-based; settings: 10 μM, approx. 5 minute time points
Description: To assess the specificity of compounds disclosed herein in targeting cancers with overexpression of RAD51, Compound 1 was tested against primary fibroblasts and SSP25 cells (cholangiocarcinoma cell line) (FIG. 5). First, 5,000 cells were incubated in 96-well culture plates overnight. Cells were grown in DMEM or RPMI, respectively, with 10% FBS, and […] was added to a concentration of 10 μM and imaging commenced using a Cytation™ instrument using approximately 5 minute time points. DAPI was used to visualize the nuclei and mitotracker-red was used to observe mitochondria. […] Furthermore, cell morphology was affected within 5 minutes of imaging, and the macrobubble phenotype was stable for further periods of time.

- AUC Extr ([1]; 1 mg/kg IV): 19.8%
- Vss ([1]; 15 mg/kg IP): 1.19 L/kg
- AUC(0-inf) ([1]; in vivo, 1 mg/kg IV): 79.3 ng·h/mL
- AUC(0-t) ([1]; in vivo, 1 mg/kg IV): 63.9 ng·h/mL
- C0 ([1]; in vivo, 1 mg/kg IV): 514 ng/mL
- MRT inf ([1]; in vivo, 1 mg/kg IV): 0.158 h
- clearance ([1]; in vivo, 1 mg/kg IV): 222 mL/min/kg
- AUC(0-inf) ([1]; in vivo, 15 mg/kg IP): 463 ng·h/mL
- MRT inf ([1]; in vivo, 15 mg/kg IP): 48.3 h
- half-life ([1]; in vivo, ip, 15 mg/kg, 15 mg/kg IP, read-out: t½ (converted)): 36.3 min
- half-life ([1]; in vivo, ip, 15 mg/kg, IP (15 mg/kg), read-out: Half-life Mouse IP): 36.3 min
- Vd ([1]; in vivo, iv, 1 mg/kg, 1 mg/kg IV, read-out: Vss): 1.87 L/kg
- Vd ([1]; in vivo, iv, 1 mg/kg, 1 mg/kg IV, read-out: Vz): 2.04 L/kg
- half-life ([1]; in vivo, iv, 1 mg/kg, 1 mg/kg IV, read-out: t½ (converted)): 7.14 min
- half-life ([1]; in vivo, iv, 1 mg/kg, IV (1 mg/kg), read-out: Half-life Mouse IV): 7.16 min
- half-life (in vitro [2]): 365 min
- half-life (in vitro [3]): > 500 min
- half-life (in vitro [4]): > 500 min
Compound: CCCC[C@@H](NC(=O)[C@@H](CC(C)C)NC(C)=O)C(=O)N[C@H](CCCNC(=N)N)C(=O)NCCC(=O)N[C@@H](C(=O)N[C@H](CCCNC(=N)N)C(=O)N[C@H](CC(C)C)C(=O)N[C@H](CCCNC(=N)N)C(=O)N[C@@H](C(=O)NCCC(=O)N[C@H](CC(C)C)C(=O)N[C@H](CCCNC(=N)N)C(=O)N[C@H](CCCCN)C(=O)N[C@H](CCCNC(=N)N)C(=O)N[C@H](CCCNC(=N)N)C(=O)N[C@H](CCCNC(=N)N)C(=O)N[C@H](CCCNC(=N)N)C(=O)N[C@H](CCCNC(=N)N)C(=O)NCC(=O)N[C@@H](Cc1ccc2ccccc2c1)C(N)=O)C(C)C)C(C)C [Compound 22, Ac-l{d-norLeucine}r[beta-ALA]vrlrv[beta-ALA]lrkrrrrrGΦ-NH2] (Ac-[dL][dNle][dR][βAla][dV][dR][dL][dR][dV][βAla][dL][dR][dK][dR][dR][dR][dR][dR]G[2Nal]-NH2)
- % Hemolysis (250 uM) (fresh human RBCs): 5%
- tumor growth (A549 xenograft): effective to reduce tumor growth
- IC50 (SSP-25 cells): 0.018 mM

Compound: CSCC[C@@H](NC(=O)[C@@H](CC(C)C)NC(C)=O)C(=O)N[C@H](CCCNC(=N)N)C(=O)N[C@H](CO)C(=O)N[C@H](CCC(N)=O)C(=O)N[C@H](CCCNC(=N)N)C(=O)N[C@H](CC(C)C)C(=O)N[C@H](CCCNC(=N)N)C(=O)N[C@H](CCC(N)=O)C(=O)NCC(=O)N[C@H](CC(C)C)C(=O)N[C@H](CCCNC(=N)N)C(=O)N[C@H](CCCCN)C(=O)N[C@H](CCCNC(=N)N)C(=O)N[C@H](CCCNC(=N)N)C(=O)N[C@H](CCCNC(=N)N)C(=O)N[C@H](CCCNC(=N)N)C(=O)N[C@H](CCCNC(=N)N)C(=O)N[C@H](CCCNC(=N)N)C(=O)N[C@H](CCCNC(=N)N)C(N)=O [Compound 2, Ac-lmrsqrlrqGlrkrrrrrrr-NH2]
- % Hemolysis (250 uM) (fresh human RBCs): 1%
- effect on growth / cell death of A549 cells (A549 cells [5]): rapid cell death (decrease in cell index)
- cell death with added calcium chelator BAPTA-AM (SSP25 cells; 10 μM compound + 10 μM BAPTA-AM): able to counteract the cell-death inducing effects
- cell death with added calcium chelator ruthenium red (SSP25 cells; 10 μM compound + 40 μM Ruthenium red): able to counteract the cell-death inducing effects
- intracellular calcium (Fluo-2 dye) (A549 cells [6]): shows accumulation in response to treatment
- IC50 (SSP-25 cells): 4.22 mM
- cell morphology / cell death in primary fibroblasts (primary fibroblasts): little cell death is generated in the primary fibroblast cells compared to the SSP25 cells
